{
  "source": "patent US6410584B1",
  "about": "“Method for inhibiting neoplastic cells with indole derivatives” (Cell Pathways, Inc., priority 1998, dated 2002)",
  "data": [
    {"units": {"melting point": "°C"}, "values": [
      {"compound": "CCCCS(=O)(=O)NC(=O)c1ccc2[nH]cc(Cc3ccc(Cl)cc3Cl)c2c1", "note": "[Compound 48, 5-(1-butanesulfonylcarbamoyl)-3-(2,4-dichlorobenzyl)indole]", "melting point": "165.5 to 166.2"},
      {"compound": "CCCCS(=O)(=O)NC(=O)c1ccc2c(Cc3ccc(Cl)cc3Cl)c(C)[nH]c2c1", "note": "[Compound 90, 6-(1-butanesulfonylcarbamoyl)-3-(2,4-dichlorobenzyl)-2-methylindole]", "melting point": "249 to 250"},
      {"compound": "CCCS(=O)(=O)NC(=O)c1ccc2[nH]c(C)c(Cc3ccc(Cl)cc3Cl)c2c1", "note": "[Compound 91, 3-(2,4-dichlorobenzyl)-2-methyl-5-(1-propanesulfonylcarbamoyl)indole]", "melting point": "161 to 163"},
      {"compound": "Cc1[nH]c2ccc(C(=O)NS(=O)(=O)c3ccccc3)cc2c1Cc1ccc(Cl)cc1Cl", "note": "[Compound 93, 5-(benzenesulfonylcarbamoyl)-3-(2,4-dichlorobenzyl)-2-methylindole]", "melting point": "244 to 245"},
      {"compound": "CCCCCCS(=O)(=O)NC(=O)c1ccc2[nH]c(C)c(Cc3ccc(Cl)cc3Cl)c2c1", "note": "[Compound 94, 3-(2,4-dichlorobenzyl)-5-(1-hexanesulfonylcarbamoyl)-2-methylindole]", "melting point": "183 to 185"},
      {"compound": "CCCCCS(=O)(=O)NC(=O)c1ccc2[nH]c(C)c(Cc3ccc(-c4ccccc4)cc3)c2c1", "note": "[Compound 95, 3-(biphenyl-4-ylmethyl)-2-methyl-5-(1-pentanesulfonylcarbamoyl)indole]", "melting point": "189 to 190"},
      {"compound": "CCCCCS(=O)(=O)NC(=O)c1ccc2[nH]c(C)c(Cc3ccccc3Cl)c2c1", "note": "[Compound 96, 3-(2-chlorobenzyl)-2-methyl-5-(1-pentanesulfonylcarbamoyl)indole]", "melting point": "175 to 177"},
      {"compound": "CCCCS(=O)(=O)NC(=O)c1ccc2[nH]c(C)c(C(=O)c3ccc(Cl)cc3Cl)c2c1", "note": "[Compound 97, 5-(1-butanesulfonylcarbamoyl)-3-(2,4-dichlorobenzoyl)-2-methylindole]", "melting point": "241 to 243"},
      {"compound": "Cc1[nH]c2ccc(C(=O)NS(=O)(=O)CCC(C)C)cc2c1Cc1ccc(Cl)cc1Cl", "note": "[Compound 98, 3-(2,4-dichlorobenzyl)-2-methyl-5-(3-methyl-1-butanesulfonylcarbamoyl)indole]", "melting point": "167 to 169"},
      {"compound": "CCCCCS(=O)(=O)NC(=O)c1ccc2[nH]c(C)c(Cc3ccc(OCc4ccccc4)cc3)c2c1", "note": "[Compound 100, 3-(4-benzyloxybenzyl)-2-methyl-5-(1-pentanesulfonylcarbamoyl)indole]", "melting point": "180 to 184"},
      {"compound": "CCCCCS(=O)(=O)NC(=O)c1ccc2[nH]c(CCC)c(Cc3ccc(Cl)cc3Cl)c2c1", "note": "[Compound 101, 3-(2,4-dichlorobenzyl)-5-(1-pentanesulfonylcarbamoyl)-2-propylindole]", "melting point": "168 to 169"},
      {"compound": "Cc1[nH]c2ccc(C(=O)NS(=O)(=O)C(F)(F)F)cc2c1Cc1ccc(Cl)cc1Cl", "note": "[Compound 113, 3-(2,4-dichlorobenzyl)-2-methyl-5-(trifluoromethanesulfonylcarbamoyl)indole]", "melting point": "201 to 205"},
      {"compound": "CCCCS(=O)(=O)NC(=O)c1ccc2c(C)c(Cc3ccc(Cl)cc3Cl)[nH]c2c1", "note": "[Compound 121, 6-(1-butanesulfonylcarbamoyl)-2-(2,4-dichlorobenzyl)-3-methylindole]", "melting point": "215.5 to 216.1"}
    ]}
  ]
}
